Laboratory results taken from patent US9174994B2, “Enhanced treatment regimens using mTor inhibitors” (INTELLIKINE LLC, priority 2011, dated 2015).

Test: Phase I clinical trial: treatment-emergent adverse events (patients, n (%)), dose limiting toxicity, MTD
Format: in vivo
Protocol: Safety, maximum tolerated dose (MTD), pharmacokinetics (PK) and preliminary antitumor activity were evaluated.
Pharmacodynamic (PD) endpoints were evaluated in surrogate (peripheral blood cells [PBCs], skin) and tumor tissues for the phosphorylation of TORC1-dependent markers (4EBP1/S6), and TORC2-dependent markers (AKT/PRAS40).

CC(C)n1nc(-c2ccc3oc(N)nc3c2)c2c(N)ncnc21 [compound A]
0 (0%): Asthenia (15 mg/week (N = 3)) | DIARRHEA (15 mg/week (N = 3)) | Decreased appetite (15 mg/week (N = 3)) | Diarrhoea (15 mg/week (N = 3)) | Dysgeusia (15 mg/week (N = 3)) | Dyspepsia (15 mg/week (N = 3)) | HYPERGLYCEMIA (15 mg/week (N = 3)) | Lymphopenia (15 mg/week (N = 3)) | Malaise (15 mg/week (N = 3)) | Mucosal inflammation (15 mg/week (N = 3)) | Muscle spasms (15 mg/week (N = 3)) | Oral discomfort (15 mg/week (N = 3)) | Pruritus (15 mg/week (N = 3)) | RASH (15 mg/week (N = 3)) | Rash (15 mg/week (N = 3)) | Vomiting (15 mg/week (N = 3)) | WEAKNESS (15 mg/week (N = 3)) | Alanine aminotransferase increased (16 mg/3 W, QDx3d QW (N = 3)) | Catheter site inflammation (16 mg/3 W, QDx3d QW (N = 3)) | Catheter site pain (16 mg/3 W, QDx3d QW (N = 3)) | Decreased appetite (16 mg/3 W, QDx3d QW (N = 3)) | Dry skin (16 mg/3 W, QDx3d QW (N = 3)) | Dysgeusia (16 mg/3 W, QDx3d QW (N = 3)) | Dyspnoea (16 mg/3 W, QDx3d QW (N = 3)) | Hyperbilirubinaemia (16 mg/3 W, QDx3d QW (N = 3)) | Hypercholesterolaemia (16 mg/3 W, QDx3d QW (N = 3)) | Hypertransaminasaemia (16 mg/3 W, QDx3d QW (N = 3)) | Hypertriglyceridaemia (16 mg/3 W, QDx3d QW (N = 3)) | Hypomagnesaemia (16 mg/3 W, QDx3d QW (N = 3)) | Hypotension (16 mg/3 W, QDx3d QW (N = 3)) | Lymphopenia (16 mg/3 W, QDx3d QW (N = 3)) | Nausea (16 mg/3 W, QDx3d QW (N = 3)) | Palmar-plantar erythrodysaesthesia syndrome (16 mg/3 W, QDx3d QW (N = 3)) | Platelet count decreased (16 mg/3 W, QDx3d QW (N = 3)) | Pruritus (16 mg/3 W, QDx3d QW (N = 3)) | Rash (16 mg/3 W, QDx3d QW (N = 3)) | Rash macular (16 mg/3 W, QDx3d QW (N = 3)) | Urinary tract infection (16 mg/3 W, QDx3d QW (N = 3)) | Vomiting (16 mg/3 W, QDx3d QW (N = 3)) | ASTHENIA (20 mg/week (N = 3)) | ATHENIA (20 mg/week (N = 3)) | Alanine aminotransferase increased (20 mg/week (N = 3)) | Aspartate aminotransferase increased (20 mg/week (N = 3)) | Blood creatinine increased (20 mg/week (N = 3)) | Blood triglycerides increased (20 mg/week (N = 3)) | DIARRHEA (20 mg/week (N = 3)) | Dysgeusia (20 mg/week (N = 3)) | HYPERGLYCEMIA (20 mg/week (N = 3)) | Lymphopenia (20 mg/week (N = 3)) | Malaise (20 mg/week (N = 3)) | Oral discomfort (20 mg/week (N = 3)) | RASH (20 mg/week (N = 3)) | WEAKNESS (20 mg/week (N = 3)) | Alanine aminotransferase increased (30 mg/week (N = 3)) | Aspartate aminotransferase increased (30 mg/week (N = 3)) | Asthenia (30 mg/week (N = 3)) | Blood creatinine increased (30 mg/week (N = 3)) | Blood triglycerides increased (30 mg/week (N = 3)) | Decreased appetite (30 mg/week (N = 3)) | Diarrhoea (30 mg/week (N = 3)) | Dysgeusia (30 mg/week (N = 3)) | Dyspepsia (30 mg/week (N = 3)) | Hyperglycaemia (30 mg/week (N = 3)) | Lymphopenia (30 mg/week (N = 3)) | Muscle spasms (30 mg/week (N = 3)) | Oral discomfort (30 mg/week (N = 3)) | Pruritus (30 mg/week (N = 3)) | Rash (30 mg/week (N = 3))
3: Patients Reporting at Least One Related TEAE (15 mg/week (N = 3)) | Nausea (30 mg/week (N = 3)) | Patients Reporting at Least One Related TEAE (30 mg/week (N = 3))
2 (67%): Hyperglycaemia (15 mg/week (N = 3)) | Nausea (15 mg/week (N = 3)) | Hyperglycaemia (16 mg/3 W, QDx3d QW (N = 3)) | Mucosal inflammation (16 mg/3 W, QDx3d QW (N = 3)) | Patients Reporting at Least One Related TEAE (16 mg/3 W, QDx3d QW (N = 3)) | Asthenia (20 mg/week (N = 3)) | Diarrhoea (20 mg/week (N = 3)) | Mucosal inflammation (20 mg/week (N = 3)) | Nausea (20 mg/week (N = 3)) | Patients Reporting at Least One Related TEAE (20 mg/week (N = 3)) | HYPERGLYCEMIA (30 mg/week (N = 3))
1 (33%): Blood creatinine increased (15 mg/week (N = 3)) | Blood triglycerides increased (15 mg/week (N = 3)) | Asthenia (16 mg/3 W, QDx3d QW (N = 3)) | Diarrhoea (16 mg/3 W, QDx3d QW (N = 3)) | Fatigue (16 mg/3 W, QDx3d QW (N = 3)) | Headache (16 mg/3 W, QDx3d QW (N = 3)) | Low fever (16 mg/3 W, QDx3d QW (N = 3)) | Pyrexia (16 mg/3 W, QDx3d QW (N = 3)) | Asthenia (16 mg/3 W, QDx3d QW (N = 3), 2nd Asthenia line) | Decreased appetite (20 mg/week (N = 3)) | Dyspepsia (20 mg/week (N = 3)) | Hyperglycaemia (20 mg/week (N = 3)) | Muscle spasms (20 mg/week (N = 3)) | Pruritus (20 mg/week (N = 3)) | Rash (20 mg/week (N = 3)) | Vomiting (20 mg/week (N = 3)) | ASTHENIA (30 mg/week (N = 3)) | ATHENIA (30 mg/week (N = 3)) | DIARRHEA (30 mg/week (N = 3)) | Malaise (30 mg/week (N = 3)) | Mucosal inflammation (30 mg/week (N = 3)) | RASH (30 mg/week (N = 3)) | Vomiting (30 mg/week (N = 3)) | WEAKNESS (30 mg/week (N = 3))
As-: Dose limiting toxicity (40 mg QW)
Muco-: Dose limiting toxicity (20 mg Q3D)
